The subject of test [1] is p-IκB-α. In words: Western blotting of midbrain, MPTP-treated rats: p-IκB-α. The format is in vivo, SD rats. Conditions: levodopa 10 mg/kg. On the technique in general: A western blot detects proteins with antibodies after separation by electrophoresis.
Description: (§3) Four-week-old male SD rats were purchased from Rion Bio, Inc. and were housed in a temperature-controlled (21-22° C.) and light-controlled (12 h light/dark cycle) environment with 70% humidity; they were given free access to water and rodent chow. […] The brains were dissected and analyzed by histological and western blotting analysis.
(§4) Rat brains were lysed in radioimmunoprecipitation assay lysis buffer containing protease inhibitor (Roche, Mannheim, Germany) and centrifuged at 10,000×g for 30 min at 4° C. Total protein levels were determined using a Bio-Rad protein kit (Bio-Rad, Hercules, Calif., USA). The proteins were separated by electrophoresis in a 10-15% sodium dodecyl sulfate-polyacrylamide gel and transferred onto the Immobilon-P transfer membrane (EMD Millipore Co., Bedford, Mass., USA). The membrane was blocked with 5% bovine serum albumin (Sigma-Aldrich). […] Protein bands were detected using a chemiluminescence method (Thermo Fisher Scientific) by a C-DiGit Blot Scanner (Li-COR, Lincoln, Nebr., USA), and their densities were quantified using ImageJ (NIH, Rockville, Md., USA). […]
Test [2] concerns iNOS. Kind of test: Western blotting of midbrain, MPTP-treated rats: iNOS. Conditions: levodopa 10 mg/kg. It is filed as in vivo, SD rats.
Description: as §3, §4
Another test relates to TH-positive cells. In words: Immunohistochemical staining of tyrosine hydroxylase (TH) neurons, MPTP-intoxicated mice. The format is in vivo, C57BL/6 mice. The method, then: Brain sections (4 μm thick) were deparaffinized in xylene-alcohol series for 5 min each, with subsequent recovery of antigenic sites on steam fluent (pot value) for 30 min. The slides were washed twice for 5 min with 1× phosphate-buffered saline (PBS) and then immersed in 0.3% hydrogen peroxide for 30 min at 25° C. to block endogenous peroxidase activity. The sections were incubated with 10% goat serum (for polyclonal antibodies) for 30 min and then incubated at 4° C. with the TH primary antibody (Abcam, Cambridge, UK) for 24 h. Subsequently, all samples were incubated with biotinylated goat anti-rabbit IgG (H+L) horseradish peroxidase (HRP)-conjugated antibodies (Zymax). The sections were incubated with 3,3-diaminobenzidine (Vectro Laboratories, Inc., Burlingame, Calif., USA) for 10 min at 37° C. Finally, the tissue sections were counterstained with hematoxylin for 2 min, dehydrated with an alcohol-xylene series, and mounted with coverslips using Permount mounting medium (Thermo Fisher Scientific). The specimens were examined using a Nikon Eclipse TS100 microscope (Nikon, Tokyo, Japan) at 200× magnification, and the microscopy images were analyzed using the OptiView image analysis software (Korea Lab Tech, Seongnam-si, Republic of Korea). Immunopositive neurons were counted manually.

A further test relates to COX-2. The format is in vivo, SD rats.
Test [3] deals with Mac-1.
Description: as §3, §4
The test system of test [4] is p-IκB-α. Kind of test: Western blotting of brain, MPTP-treated mice: p-IκB-α. The format is in vivo, C57BL/6 mice. To be noted: Levodopa. An excerpt: (§1) All experimental animals were approved by the Institutional Animal Care and Use Committee at Konkuk University (IACUC approval number, KU18045), Seoul, Republic of Korea.
Another test relates to Bcl-2. Kind of test: Western blotting of brain, MPTP-treated mice: Bcl-2. The format is in vivo, C57BL/6 mice. Conditions: Levodopa (positive control).
Excerpt: as §1

Test [5] deals with iNos. The format is in vivo, C57BL/6 mice. Conditions: brain.
Excerpt: as §1

The test system of another test is SH-SY5Y cells. Kind of test: MTT cell viability in MPTP-treated SH-SY5Y cells. The format is cell-based, human. To be noted: 24 h. The method, then:
1-Methyl-4-phenylpyridinium (MPP+) induces a severe parkinsonian-like syndrome and a significant reduction in dopaminergic cells by the selective inhibition of complex I in the mitochondrial electron transport chain.
(§2) Human Neuroblastoma Cells (SH-SY5Y) (Korean Cell Bank, Seoul, Korea) were cultured in Dulbecco's modified Eagle's medium containing 10% fetal bovine serum (Hyclone, Logan, Utah, USA) and 1% penicillin-streptomycin (GIBCO, Grand Island, N.Y., USA) in a humidified incubator with 5% CO2 at 37° C.
SH-SY5Y ([…]) cells were cultured in a 96-well plate, and cell viability was determined using the MTT (Promega, Madison, Wis., USA) assay as described previously. […] The MTT solution was then added, followed by incubation at 37° C. for 4 h. The supernatant was removed, and the formed formazan crystals were dissolved in dimethyl sulfoxide. The absorbance of the resulting solution was measured at 540 nm using a UVM 340 microplate reader (Biochrom Asys, Cambridge, UK).

In test [6] the test system is Mac-1. Kind of test: Western blotting, MPTP-treated SH-SY5Y cells: Mac-1. It is filed as cell-based, human. To be noted: 2-mM MPTP-intoxicated SH-SY5Y cells. The procedure: as §2
Test [7] relates to cytochrome C. In words: Western blotting, MPTP-treated SH-SY5Y cells: cytochrome C. It is filed as cell-based, human. To be noted: MPTP-intoxicated SH-SY5Y cells. The method, then:
as §2

The test system of test [8] is cytochrome C. It is filed as in vivo, C57BL/6 mice. Conditions: MPTP-intoxicated mice, brain.
Excerpt: as §1

A further test relates to SOD. It is filed as in vivo, C57BL/6 mice. Conditions: MPTP-treated mice, brain.
Excerpt: as §1

Description for COX-2: as §3, §4

For the compound `N[C@@H](Cc1ccc(O)c(O)c1)C(=O)O` [Levodopa], the “p-IκB-α level reduced, compared to MPTP control group” value in the test on p-IκB-α [1] worked out at 1.2 fold. For the same compound, the “elevated iNOS expression inhibited vs MPTP control” value with iNOS [2] was 2.9 fold. For the same compound, in the test on TH-positive cells (MPTP mice, levodopa 2 mg/kg oral), the “numbers of TH-positive cells vs MPTP-intoxicated group” value was “significantly elevated”. For the same compound, the “expression level of COX-2 downregulated” value in the test with COX-2 (MPTP rats, levodopa 10 mg/kg) is 1.7 fold. Further, in the test with Mac-1 [3] (MPTP rats, levodopa 10 mg/kg), the “elevated level of MAC-1 attenuated vs MPTP control” value came to 1.9 fold. Also, the “increased p-IκB-α level” value in the test with p-IκB-α [4] was “slightly restored”. For the same compound, the “effects of MPTP on Bcl-2 protein expression” value with Bcl-2 was “significantly reversed”. For the same compound, the “elevation of iNos expression” value in the test with iNos [5] (MPTP mice, Levodopa treatment) is reported as “inhibited”.

On to `CN1CC=C(c2ccccc2)CC1` [MPTP, 1-methyl-4-phenyl-1,2,3,6-tetrahydropyridine], for which, in the test on TH-positive cells (MPTP-intoxicated mice, 20 mg/kg/day), the “number of TH-positive cells reduced, compared with sham group” value is reported as “more than two-fold”. Further, the “COX-2 protein overexpressed, with reference to sham operated group” value in the test with COX-2 (MPTP-intoxicated rats) came out at 6 fold. For the same compound, the cell death in the test with SH-SY5Y cells (1 mM MPTP) was found to be 29.05%; in the test with SH-SY5Y cells (2 mM MPTP) it was 68.89%. For the same compound, the “expression of Mac-1 protein elevated, compared with sham groups” value in the test with Mac-1 [3] (MPTP control rats) stood at 6.4 fold. In addition, the “Mac-1 protein expression level elevated by, compared with normal cells” value with Mac-1 [6] came to 0.8 folds. Further, the “protein expression level of cytochrome C upregulated” value in the test with cytochrome C [7] is given as 10 folds. Moreover, the “iNos protein expression level elevated by, compared with sham group” value with iNos [5] (MPTP-treated mice) came out at 0.44 folds. The “protein expression level of cytochrome C upregulated by, compared with sham mice” value with cytochrome C [8] was determined as 0.54 folds. Moreover, the “expression level of SOD lower than in sham group” value with SOD worked out at 2.3 folds.

The record behind these values is patent US11638736B2, “Compositions for preventing or treating diseases or disorders associated with neuro-inflammation, neuro-apoptosis, or neuro- oxidative damage and uses thereof” (priority 2018, dated 2023).
